In data set [1] the test system is WM266-4 cells. The experiment in a line: CellTiter-Glo cell viability assay, WM266-4 (including rescue assays). Format: cell-based, human. As to the method: Cells were plated in 384-well plates in 8 μL of media. Test compounds and dabrafenib (pharmacological assay control) were prepared as 10-point, 1:3 serial dilutions starting at 300 μM, then added to the cells (4 μL per well) using the Biomek Plates were incubated for 72 h at 37° C., 5% CO2 and 95% relative humidity. After incubation, 4 μL of CellTiter-Glo® (Promega cat #: G7570) were added to each well, and incubated for 15 min at room temperature. Luminescence was recorded using a Biotek Synergy H4 multimode microplate reader. Viability was expressed as a percentage relative to wells containing media only (0%) and wells containing cells treated with DMSO only (100%). Three parameters were calculated on a per-plate basis: (a) the signal-to-background ratio (SB); (b) the coefficient for variation [CV; CV=(standard deviation/mean)×100)] for all compound test wells; and (c) the Z′-factor (18). The IC50 value of the pharmacological control (dabrafenib, LC Laboratories #G-4408) was also calculated to ascertain the assay robustness. In case of viability rescue assays, cells were pre-treated with caspase, calpain, and autophagy inhibitors for 1-3 h before addition of test compounds. Time course viability assay was done with luminescence measurements performed at 4, 24, 48, and 72 h.
On the technique in general: Cellular ATP, detected with luciferase, serves as a proxy for viable cell number.

Data set [2] concerns calpain in WM266-4 cells. The experiment in a line: Calpain activity assay (Calpain-Glo). Format: cell-based, human. The settings on record: 20 μM; from 30 min, persisted at 4 and 24 h. On the procedure: The Calpain-Glo Protease Assay (Promega cat #) was used to measure the calpain enzyme activity in live cells, according to the manufacturer's instructions. 1,250 of WM-266-4 cells were plated in 384-well white TC-treated plates in 5 μL of serum-free EMEM media. The cells were incubated overnight at 37° C., 5% CO2 and 95% relative humidity and 5 μL of test compounds 2155-14, (100 μM), calpain inhibitor III and PD151746 (25 μM) were added alone or in combination and incubated at 37° C., 5% CO2, and 95% relative humidity for 0.5, 4, and 24 h. After incubation, 10 μL, of a freshly prepared dilution of the Calpain-Glo Reagent stock solution (consisting of Suc-LLVY-Glo™ substrate, Calpain-Glo™ buffer, Luciferin Detection Reagent, and CaCl2) was added to cells at above mentioned times and luminescence was recorded with a Neo 2 microplate reader (Biotek Inc). All experiments were performed in triplicate and the values provided are the calculated average of at least three independent experiments.

For data set [3], the system named is LC3-II and beclin-1 in WM266-4 cells. The experiment in a line: Western blotting for LC3 and beclin-1, WM266-4. Format: cell-based, human. On the procedure: 1×10^6 of WM266-4 or M14 cells were seeded in 3 mL of E-MEM or RPMI-1640 medium supplemented with 10% FBS and 1% penicillin/streptomycin in 6 cm plates. […] After washing with TBST, the membranes were treated with chemilumiscent horseradish peroxidase detection reagent (Thermo Scientific, Cat #32209) and exposed to autoradiography film (Denville Scientific, Inc., Metuchen, N.J., USA, cat #E3018). ImageJ software (NIH, Bethesda, Md.) was used to quantify the intensity of proteins bands. The protein bands were normalized against loading controls (β-actin) and expressed as a fold of an untreated control.
On the technique in general: Immunoblotting shows a protein as a band on a membrane.

Data set [4] concerns cleaved lamin A/C in WM266-4 cells. The experiment in a line: Western blotting for lamin A/C cleavage. Format: cell-based, human. On the procedure: 1×10^6 of WM266-4 or M14 cells were seeded in 3 mL of E-MEM or RPMI-1640 medium supplemented with 10% FBS and 1% penicillin/streptomycin in 6 cm plates. […] After washing with TBST, the membranes were treated with chemilumiscent horseradish peroxidase detection reagent (Thermo Scientific, Cat #32209) and exposed to autoradiography film (Denville Scientific, Inc., Metuchen, N.J., USA, cat #E3018). ImageJ software (NIH, Bethesda, Md.) was used to quantify the intensity of proteins bands. The protein bands were normalized against loading controls.

Data set [5] has as its system M14 cells. The settings on record: time course 4-72 h; time stated at the place. On the procedure: ApoTox-Glo™ Triplex Assay which allows one to simultaneously assess the effect of small molecules on cell viability, toxicity, caspase activity, and cell cycle all in the same well (Niles, A. L.; Moravec, R. A.; Riss, T. L. In vitro viability and cytotoxicity testing and same-well multi-parametric combinations for high throughput screening. Curr Chem Genomics 2009, 3, 33-41) was utilized. First, a mixture of 2 fluorogenic substrates was added to cells. GF-AFC substrate is cell-permeant and non-lytic to cells, allowing the measurement of active protease inside live cells. The second substrate (bis-AAF-R110 Substrate) is not cell-permeable and is only cleaved when proteases are released from cells due to the loss of membrane integrity typical of cell death. This step generates an inversely correlated measurement of cell viability and toxicity.
The second addition is luminogenic DEVD-peptide substrate for caspase-3/7 and Ultra-Glo™ Recombinant Thermostable Luciferase. Caspase-3/7 cleavage of the substrate generates a luminescent signal which correlates with caspase-3/7 activation as a key indicator of apoptosis. As markers for cytotoxicity and apoptosis are transient, the assay was conducted in time course format with time points at 4, 24, 48, and 72 h.
M14 #5 cells were plated in 384-well format at a density of 1,250 cells in 5 μL of serum-free DMEM media and incubated at 37° C. in 5% CO2 for 4 h. Control and test compounds were serially diluted in a ratio of 1:3 and added to wells in 4 μL. […] Plates were incubated at 37° C. in 5% CO2 for 4, 24, 48, and 72 h. At the end of each time point Viability/Cytotoxicity™ Reagent was prepared containing 400 μM glycylphenylalanyl-aminofluorocoumarin (GF-AFC) substrate (cleavable by live cell proteases) and 400 μM bis-alanylalanyl-phenylalanyl-rhodamine 110 (bis-AAF-R110) substrate (cleavable by dead cell proteases). 4 μL of the Viability/Cytotoxicity™ Reagent was used per well. The plate was incubated for 30 min at 37° C. Fluorescence was read at λEx=400 nm and λEm=505 nm for GF-AFC and λEx=485 nm and λEm=520 nm for bis-AAF-R110 on the BioTek Synergy™ 4 Multi-Mode Microplate Reader. Caspase-Glo® 3/7 Reagent was then added in 12 μL volume. The plate was incubated for 30 min at room temperature and luminescence was measured on the BioTek Synergy™ 4 Multi-Mode Microplate Reader.

Data set [6] has as its system WM266-4 cells. The experiment in a line: Annexin V flow cytometry assay. Format: cell-based, human. Particulars: 4 h. The source says:
After 4, 24 and 48 hrs of compound exposure the adherent and floating cells were combined and stained using the TACS Annexin V-FITC Apoptosis detection kit (Trevigen Inc, Gaithersburg, Md., USA) using manufacturer's protocol. Viable, necrotic, early and late apoptotic cells were counted using Accuri flow cytometer as per the manufacturer instructions.

[7] abbreviates: 50 μM inhibitor, then 100 μM 2155-14.
Where [8] appears, read: 10 μM inhibitor 3 h, then 100 μM 2155-14, 24 h.
Setting [9] is: cells treated with 100 μM 2155-14, inhibitor 10 μM.

“Also recorded” adds a separate entry of the source. Peptide text beside a SMILES is read from it. * marks the point of attachment. Cbz = O=C(OCc1ccccc1)*; CH2F = FC*

The record followed here is US11149028B2, “Methods for treating melanoma using small molecules” (NOVA SOUTHEASTERN UNIVERSITY, priority 2016, dated 2021).

For `CCCNC(=O)[C@H]1O[C@@H]1C(=O)N[C@H](C(=O)N1CCC[C@H]1C(=O)O)[C@@H](C)CC` [CA074, reference compound], in data set [1] (24 h, 20 μM cathepsin B inhibitor), the “viability of WM266-4 cells” value amounted to 25%. Also, the “increase of calpain activity” value in data set [2] is on record as approximately 5 fold.
As to `CN(C)c1cccc2c(S(=O)(=O)NCCCC[C@@H](CN3CCC[C@H]3CN3C(=O)C(=O)NC[C@@H]3Cc3ccccc3)N3C[C@H](Cc4ccc(O)cc4)N(CCc4ccccc4)C(=O)C3=O)cccc12` [Compound 2476-66.2, N—((S)-6-((S)-2-(((S)-6-benzyl-2,3-dioxopiperazin-1-yl)methyl)pyrrolidin-1-yl)-5-((S)-5-(4-hydroxybenzyl)-2,3-dioxo-4-phenethylpiperazin-1-yl)hexyl)-5-(dimethylamino)naphthalene-1-sulfonamide], the “LC3-II level” value in data set [3] (2.5 μM, 24 hr) is listed as “no cleavage of lamin A/C or increase of levels of LC3-II was detected”. The “LC3 western blot” value in data set [3] (5 μM, 24 hr) is listed as “neither of LC3 isoforms nor actin were detected”. The “lamin A/C cleavage” value in data set [4] (2.5 μM, 24 hr) was “no cleavage of lamin A/C”. In addition, in data set [4] (5 μM, 24 hr), the “lamin A/C western blot” value was “striking increase of cleaved lamin A/C”.
Consider `O=C(CCCC[C@@H]1SC[C@@H]2NC(=O)N[C@@H]21)NCCCC[C@@H](CN1CCC[C@H]1CN1C(=O)C(=O)NC[C@@H]1Cc1ccccc1)N1C[C@H](Cc2ccc(O)cc2)N(CCc2ccccc2)C(=O)C1=O` [Compound 2529-5, N—((S)-6-((S)-2-(((S)-6-benzyl-2,3-dioxopiperazin-1-yl)methyl)pyrrolidin-1-yl)-5-((S)-5-(4-hydroxybenzyl)-2,3-dioxo-4-phenethylpiperazin-1-yl)hexyl)-5-((3aS,4S,6aR)-2-oxohexahydro-1H-thieno[3,4-d]imidazol-4-yl)pentanamide], for which, in data set [1] (Homo sapiens, WM 266-4, 72 h, 72 h), the IC50 (as a rule, the concentration at which inhibition is half-maximal) was more than 100 µM. For the same compound, the cytotoxicity at 100 µM in data set [1] (Homo sapiens, WM 266-4, 100 μM, 72 h, read-out: maximal inhibition of cell viability) worked out at 37%. For the same compound, the “LC3-II level” value in data set [3] (100 μM, 24 h) is listed as “did not significantly increase”. Moreover, in data set [4] (100 μM, 24 h), the “cleaved lamin A/C level” value is recorded as “did not significantly increase; also recorded: had no effect on cleavage of lamin A/C”.
On to `COC(=O)C[C@H](NC(=O)[C@H](C)NC(=O)[C@@H](NC(=O)[C@H](CC(=O)OC)NC(=O)[C@@H](NC(=O)OCc1ccccc1)C(C)C)C(C)C)C(=O)CF` [caspase 2 inhibitor, Z-VDVAD-FMK, reference compound] (Cbz-VD(OMe)VAD(OMe)-CH2F), for which the “lamin A/C cleavage after caspase inhibitor pre-treatment” value in data set [4] (setting [7]) is on record as “to the lesser extent”.
Turning to `CC[C@H](C)[C@H](NC(=O)[C@H](CCC(=O)OC)NC(=O)[C@@H](NC(=O)OCc1ccccc1)C(C)C)C(=O)N[C@@H](CC(=O)OC)C(=O)CF` [caspase 6 inhibitor, Z-VEID-FMK, reference compound] (Cbz-VE(OMe)ID(OMe)-CH2F), the “lamin A/C cleavage after caspase inhibitor pre-treatment” value in data set [4] (setting [8]) is “Only partial inhibition of lamin A/C cleavage”; in data set [4] (setting [7]) it was “almost completely abrogated”.
Consider `CC[C@H](C)[C@H](NC(=O)OCc1ccccc1)C(=O)N[C@@H](CCC(=O)OC)C(=O)N[C@H](C(=O)N[C@@H](CC(=O)OC)C(=O)CF)[C@@H](C)O` [caspase 8 inhibitor, Z-IETD-FMK, reference compound] (Cbz-IE(OMe)TD(OMe)-CH2F), for which the “lamin A/C cleavage after caspase inhibitor pre-treatment” value is on record as “Only partial inhibition of lamin A/C cleavage” in data set [4] (setting [8]) and “almost completely abrogated” in data set [4] (setting [7]).
For `CCN(CCO)CCCC(C)Nc1ccnc2cc(Cl)ccc12` (stereo not shown) [hydroxychloroquine, reference compound], the “LC3-II level after autophagy inhibitor pretreatment” value in data set [3] (setting [9]) was “increased levels”. Besides, in data set [4] (setting [9]), the “cleaved lamin A/C level after autophagy inhibitor pretreatment” value was “increased levels”.
`C[C@H](CCC(=O)O)C[C@H](C)C[C@H](C)C(=O)/C=C(\O)[C@H](C)C[C@H](C)C/C=C/[C@@H](C)[C@@H](O)[C@@H](C)[C@@H](O)C[C@@H]1CC[C@@](C)([C@H]2CC[C@@](C)([C@@H](C)O)O2)O1` [ionomycin, reference compound]: in data set [5], the “ApoTox caspase-3/7 activity” value is recorded as “did not induce a spike in caspase activity at any of the time points”, the “ApoTox cytotoxicity” value was “strong cytotoxicity response” and the “ApoTox viability (live cell protease)” value was “dose dependent loss of viability as early as 4 h”.
Regarding `COC(=O)C[C@H](NC(=O)[C@H](C)NC(=O)[C@@H](NC(=O)OCc1ccccc1)C(C)C)C(=O)CF` [pan-caspase inhibitor, Z-VAD-FMK, reference compound] (Cbz-Val-Ala-Asp(OMe)-CH2F), the “lamin A/C cleavage after caspase inhibitor pre-treatment” value in data set [4] (setting [8]) is listed as “Only partial inhibition of lamin A/C cleavage”; in data set [4] (setting [7]), “almost completely abrogated”.
For `CN[C@@H]1C[C@H]2O[C@@](C)([C@@H]1OC)n1c3ccccc3c3c4c(c5c6ccccc6n2c5c31)C(=O)NC4` [staurosporine, reference compound], in data set [6], the “apoptosis detected” value is listed as “apoptosis was detected only in staurosporine-treated cells”.
Consider `CC(C)(C)c1ccc(C(O)CCCN2CCC(C(O)(c3ccccc3)c3ccccc3)CC2)cc1` (stereo not shown) [terfenadine, reference compound], for which, in data set [5], the “ApoTox caspase-3/7 activity” value is reported as “early caspase activity spike (4-24 h)” and the “ApoTox viability (live cell protease)” value was “early loss of cell viability”.
